Test results taken from US20240415837A1, “PHARMACOLOGIC MODULATION OF 5-FLUOROURACIL BY FOLINIC ACID AND VITAMIN B6 FOR THE TREATMENT OF PATIENTS WITH CARCINOMA” (priority 2021, published 2024).
Read-outs that look alike come from different tables or passages of the source. Blank lines part the entries; values can stand above or below the compound they belong to.

Experiments:
[1] = target: serine hydroxymethyl transferase (SHMT) apoenzyme; settings: cited from earlier work
[2] = Erythrocyte pharmacokinetics of vitamin B6 after intraperitoneal high-dose pyridoxine or pyridoxamine in mice; settings: erythrocytes, 450 mg/kg intraperitoneal
[3] = target: T1, pyridoxine (pyridoxamine) 5′-phosphate oxidase (PNPOx) (Homo sapiens, UniProt Q9NVS9); settings: read-out: Km of PNPOx; cited from earlier work
T1 sequence (Q9NVS9 1-261): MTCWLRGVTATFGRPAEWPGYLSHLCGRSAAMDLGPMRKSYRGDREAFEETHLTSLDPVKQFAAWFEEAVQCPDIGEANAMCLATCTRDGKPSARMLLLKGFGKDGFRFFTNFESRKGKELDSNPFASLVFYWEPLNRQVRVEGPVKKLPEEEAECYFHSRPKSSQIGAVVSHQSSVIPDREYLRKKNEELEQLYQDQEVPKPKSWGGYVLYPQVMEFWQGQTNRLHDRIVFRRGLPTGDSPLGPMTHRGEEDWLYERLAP

[4] = cited from earlier work
[5] = Pilot study in patients with advanced breast carcinoma: assessment of toxicity; settings: human, in vivo
Text: Doxorubicin comprised in FAC and AVCF regimens was suspended in case of ≥10% decrease in left ventricular ejection fraction from baseline value. […] Vinorelbine-containing chemotherapy (i.e., VCbF) was indicated instead of TCbF for patients who had severe hematopoietic impairment or prior taxane-induced toxicity and was used in substitution for TCbF in cases of paclitaxel-induced SPN occurring in patients throughout the study.
Patients with paclitaxel induced neuropathy, whose chemotherapy was either interrupted or pursued with VCbF had further progressive decrease of neurologic symptoms, and then disappearance occurring in most patients during follow-up. […] Except for interruption of paclitaxel as described above, no dose reductions of any cytostatic agent or increasing intervals between courses due to unusual or unexpectedly excessive hematologic and/or visceral toxicity were required. The single case of acute myelogenous leukemia carrying the 17q-chromosome aberration marker occurred 18 months after cessation of induction treatment in one patient who had prior genotoxic cytostatics and radiotherapy.

SMILES: Cc1ncc(COP(=O)(O)O)c(C=O)c1O [PLP, pyridoxal 5′-phosphate]
Kd ([1]; read-out: Kd of SHMT binding to cofactor, lower end of reported range): ≥ 0.25 µM
Kd ([1]; read-out: Kd of SHMT binding to cofactor, upper end of reported range): ≤ 27 µM

AUC 12 h of B6 vitamer: PLP [2]: 14,988 nmol/L cells · 12 h
AUC 12 h of B6 vitamer: PMP [2]: 19,356 nmol/L cells · 12 h
SMILES: Cc1ncc(CO)c(CN)c1O [PM, pyridoxamine]

SMILES: Cc1ncc(COP(=O)(O)O)c(CN)c1O [PMP, pyridoxamine 5′-phosphate]
Km [3]: 1 µM

AUC 12 h of B6 vitamer: PLP [2]: 2,231 nmol/L cells · 12 h
AUC 12 h of B6 vitamer: PMP [2]: 11,597 nmol/L cells · 12 h
SMILES: Cc1ncc(CO)c(CO)c1O [PN, pyridoxine]
toxicity in man ([4]; extremely high doses for long periods of time): sensory peripheral neuropathy
safety in man ([4]; high doses used for treatment of various conditions): safe
sensory peripheral neuropathy with high cumulative doses of pyridoxine, versus that expected with paclitaxel in TCbF [5]: not accompanied with greater incidence, or higher grades, of sensory peripheral neuropathy
